The values that follow come from patent US8329425B2, “Method and system for detection of chloramphenicol” (priority 2011, dated 2012).

For assay [1], the target named is T1, CAT I V28W mutant (Escherichia coli, UniProt P62577, C126A/C196A/C212A/C31A/C91A/V28W). The note with it: chloramphenicol 10 μM; CAT I V28W and fluorescein-linked chloramphenicol fixed at 0.15 μM; excitation 494 nm.
Protocol: Fluorescence measurements were performed on a Perkin Elmer LS 50B spectrofluorometer with the excitation wavelength set at 494 nm and the excitation and emission slit width set at 5 nm.
Assay [2] has as its target T1, CAT I V28W mutant. Kind of assay: Fluorescence response of fluorescein-linked chloramphenicol to CAT I V28W mutant. The note with it: 0.15 μM fluorescein-linked chloramphenicol, 1.5 μM CAT I V28W (FIG. 6); excitation 494 nm, slit width 5 nm. The format is binding, E. coli. Also noted: His6 (N); made in house; host or cells: E. coli BL21 (DE3). An excerpt: The excitation wavelength is 494 nm and the slit width is 5 nm.

On to `O=C(N[C@H](CO)[C@H](O)c1ccc([N+](=O)[O-])cc1)C(Cl)Cl` [chloramphenicol], for which, on CAT I V28W mutant [1], the increase in fluorescence is given as ~10%.

For the compound `O=C(CCCCCNC(=S)Nc1ccc(-c2c3ccc(=O)cc-3oc3cc(O)ccc23)c(C(=O)O)c1)N[C@H](CO)[C@H](O)c1ccc([N+](=O)[O-])cc1` [fluorescein-linked chloramphenicol, 5-(3-(6-(((1R,2R)-1,3-dihydroxy-1-(4-nitrophenyl)propan-2-yl)amino)-6-oxohexyl)thioureido)-2-(6-hydroxy-3-oxo-3H-xanthen-9-yl)benzoic acid], the “fluorescence of fluorescein-linked chloramphenicol in the presence of CAT I V28W mutant” value on CAT I V28W mutant [2] is recorded as “significantly reduced”.
